Data from patent US8956824B2, “Methods for identifying allosteric modulators of ship polypeptides” (British Columbia Cancer Agency Branch, priority 2006, dated 2015).
“Also recorded” adds a separate entry of the source.

Tests used:
[1] = target: T1, C2 domain deleted (ΔC2) SHIP1 enzyme (Mus musculus, UniProt Q9ES52, DEL725-860/G861A/K862A/M863A); experiment: Scintillation proximity assay, ΔC2 SHIP1; assay type: binding; conditions: 5 μCi
T1 construct: Full length, wild-type SHIP1 enzyme (wt) or SHIP1 enzyme in which the PH or C2 domains were deleted; made in house; 293T cells are stated only for the wild-type enzyme
T1 sequence (Q9ES52 with tags, fused parts or gaps DEL725-860/G861A/K862A/M863A limits assumed): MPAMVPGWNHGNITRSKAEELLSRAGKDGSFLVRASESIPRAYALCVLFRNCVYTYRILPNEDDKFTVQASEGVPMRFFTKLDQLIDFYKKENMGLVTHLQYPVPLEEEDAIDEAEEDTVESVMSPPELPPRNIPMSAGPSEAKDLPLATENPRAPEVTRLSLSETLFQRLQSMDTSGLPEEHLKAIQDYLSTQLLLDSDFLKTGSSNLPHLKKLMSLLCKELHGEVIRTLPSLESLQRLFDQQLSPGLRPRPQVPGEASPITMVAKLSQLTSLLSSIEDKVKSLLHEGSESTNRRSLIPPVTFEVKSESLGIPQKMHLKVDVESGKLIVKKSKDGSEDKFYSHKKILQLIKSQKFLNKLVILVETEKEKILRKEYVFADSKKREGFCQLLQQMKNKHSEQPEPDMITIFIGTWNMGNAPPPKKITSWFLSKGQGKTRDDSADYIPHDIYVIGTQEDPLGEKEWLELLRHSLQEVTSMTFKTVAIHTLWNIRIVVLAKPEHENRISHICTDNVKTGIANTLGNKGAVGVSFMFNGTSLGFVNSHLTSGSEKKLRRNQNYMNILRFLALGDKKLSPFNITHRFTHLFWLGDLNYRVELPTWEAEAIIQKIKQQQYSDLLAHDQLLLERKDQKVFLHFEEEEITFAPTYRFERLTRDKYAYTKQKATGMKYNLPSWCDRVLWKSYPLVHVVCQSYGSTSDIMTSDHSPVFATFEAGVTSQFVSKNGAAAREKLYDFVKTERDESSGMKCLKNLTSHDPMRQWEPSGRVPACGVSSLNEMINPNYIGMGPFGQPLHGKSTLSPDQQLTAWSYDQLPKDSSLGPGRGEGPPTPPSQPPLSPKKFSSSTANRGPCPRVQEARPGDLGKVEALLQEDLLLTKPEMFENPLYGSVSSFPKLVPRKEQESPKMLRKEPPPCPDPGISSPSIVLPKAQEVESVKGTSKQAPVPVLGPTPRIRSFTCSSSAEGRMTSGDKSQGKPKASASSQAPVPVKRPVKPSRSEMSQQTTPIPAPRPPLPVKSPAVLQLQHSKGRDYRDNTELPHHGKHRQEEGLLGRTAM
Description: Scintillation Proximity Assays AQX-MN100 was radiolabeled with tritium by GE Healthcare (Piscataway, N.J.) to a specific activity of 42 Ci/mmole. Copper chelate (His-Tag) YSi YSi SPA Scintillation Beads (GE Healthcare ,Piscataway, NJ) were diluted in 0.25% BSA/TBS to 1.5 mg/mL and recombinant, His6-tagged protein added at the indicated concentrations: wild-type (1 pM), ΔC2 SHIP enzyme (1 pM) or C2 domain (10 nM). Protein was allowed to bind 1 h at 23° C., and 250 μg of beads were aliquoted per well of a 96-well plate. 5 μCi of [3H]-AQX-MN100 was added per well, the plate gently agitated for 30 min and the amount of bead associated radioactivity quantified by counting in a Wallac BETAPLATE™ plate scintillation counter. Results are representative of 3 independent experiments.

PH domain deleted SHIP1 = target: T2, PH domain deleted SHIP1 (Mus musculus, UniProt Q9ES52, DEL292-400/E403A/P402A/Q401A); experiment: Scintillation proximity assay, PH domain deleted SHIP1; assay type: binding
T2 construct: Full length, wild-type SHIP1 enzyme (wt) or SHIP1 enzyme in which the PH or C2 domains were deleted; His6 (N); made in house; 293T cells are stated only for the wild-type enzyme
T2 sequence (Q9ES52 with tags, fused parts or gaps DEL292-400/Q401A/P402A/E403A): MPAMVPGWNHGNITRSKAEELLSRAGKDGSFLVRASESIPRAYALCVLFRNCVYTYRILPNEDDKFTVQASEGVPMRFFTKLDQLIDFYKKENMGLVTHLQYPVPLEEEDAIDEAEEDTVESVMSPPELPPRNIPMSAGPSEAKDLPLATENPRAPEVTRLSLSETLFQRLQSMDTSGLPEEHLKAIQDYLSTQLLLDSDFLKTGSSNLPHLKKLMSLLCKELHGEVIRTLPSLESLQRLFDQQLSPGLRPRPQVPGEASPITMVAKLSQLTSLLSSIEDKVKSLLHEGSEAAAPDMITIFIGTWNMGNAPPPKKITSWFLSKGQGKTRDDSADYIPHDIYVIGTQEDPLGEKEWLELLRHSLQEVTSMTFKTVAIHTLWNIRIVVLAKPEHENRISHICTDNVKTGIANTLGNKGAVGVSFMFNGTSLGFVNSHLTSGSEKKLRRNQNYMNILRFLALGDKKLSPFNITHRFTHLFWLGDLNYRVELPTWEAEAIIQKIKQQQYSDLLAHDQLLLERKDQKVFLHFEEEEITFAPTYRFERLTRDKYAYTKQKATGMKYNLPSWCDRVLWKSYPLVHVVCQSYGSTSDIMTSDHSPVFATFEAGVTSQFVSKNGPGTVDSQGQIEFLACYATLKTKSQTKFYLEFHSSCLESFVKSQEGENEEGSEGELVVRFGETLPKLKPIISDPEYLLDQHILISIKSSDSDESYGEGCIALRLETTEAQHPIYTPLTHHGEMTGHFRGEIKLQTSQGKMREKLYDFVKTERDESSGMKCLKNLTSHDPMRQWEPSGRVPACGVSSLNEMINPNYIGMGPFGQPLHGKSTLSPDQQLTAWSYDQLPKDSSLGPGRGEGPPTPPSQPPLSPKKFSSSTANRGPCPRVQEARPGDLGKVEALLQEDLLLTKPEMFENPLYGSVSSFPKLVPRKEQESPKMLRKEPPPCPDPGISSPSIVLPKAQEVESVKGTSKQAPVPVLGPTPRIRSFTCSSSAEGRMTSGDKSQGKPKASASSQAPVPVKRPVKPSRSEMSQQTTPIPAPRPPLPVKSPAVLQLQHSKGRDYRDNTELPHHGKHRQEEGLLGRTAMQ

## Cc1cc(O)cc2c1[C@]1(C)CC[C@H]3C(C)(C)CCC[C@]3(C)[C@H]1C2 [AQX-MN100]
[1]
  binding of [3H]-AQX-MN100 to SHIP1 lacking its C2 domain: C2 domain is required for SHIP1 to bind; also recorded: requires the C2 domain to bind
PH domain deleted SHIP1
  binding of [3H]-AQX-MN100 to SHIP1 with PH domain deleted: attenuates the ability of SHIP1 to bind
